Assay results: ChEMBL document CHEMBL1201862, “PubChem BioAssay data set” (2004)
Activity calls are given as the source filed them.

Columns and labels:
[1] = molecular target: Beta-galactosidase (Escherichia coli, UniProt Q8VNN2); experiment: PubChem AID 485352; format: functional
[2] = molecular target: T1, Type-1 angiotensin II receptor (Homo sapiens, UniProt P30556); experiment: antagonism of angiotensin II type 1 receptor – cell-based, uHTS hits, selectivity assay for APJ receptor antagonist project, dose response (AID 463214); format: functional;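 also: antagonist potency against angiotensin II stimulated AT1 response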
T1 sequence (P30556 whole entry): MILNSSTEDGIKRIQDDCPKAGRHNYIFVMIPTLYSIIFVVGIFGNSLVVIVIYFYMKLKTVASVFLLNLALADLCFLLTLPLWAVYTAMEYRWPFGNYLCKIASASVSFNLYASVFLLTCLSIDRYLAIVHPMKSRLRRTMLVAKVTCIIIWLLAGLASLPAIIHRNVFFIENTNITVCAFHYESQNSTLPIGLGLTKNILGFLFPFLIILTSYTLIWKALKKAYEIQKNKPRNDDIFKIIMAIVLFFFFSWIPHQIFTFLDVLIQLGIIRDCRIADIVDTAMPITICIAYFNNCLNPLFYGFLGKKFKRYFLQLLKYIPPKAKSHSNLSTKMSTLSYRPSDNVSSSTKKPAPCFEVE

[3] = molecular target: T2, Cytochrome P450 1A2 (Homo sapiens, UniProt P05177);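 also: PubChem cytochrome P450 panel assay, CYP1A2 panel member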
T2 sequence (P05177 whole entry): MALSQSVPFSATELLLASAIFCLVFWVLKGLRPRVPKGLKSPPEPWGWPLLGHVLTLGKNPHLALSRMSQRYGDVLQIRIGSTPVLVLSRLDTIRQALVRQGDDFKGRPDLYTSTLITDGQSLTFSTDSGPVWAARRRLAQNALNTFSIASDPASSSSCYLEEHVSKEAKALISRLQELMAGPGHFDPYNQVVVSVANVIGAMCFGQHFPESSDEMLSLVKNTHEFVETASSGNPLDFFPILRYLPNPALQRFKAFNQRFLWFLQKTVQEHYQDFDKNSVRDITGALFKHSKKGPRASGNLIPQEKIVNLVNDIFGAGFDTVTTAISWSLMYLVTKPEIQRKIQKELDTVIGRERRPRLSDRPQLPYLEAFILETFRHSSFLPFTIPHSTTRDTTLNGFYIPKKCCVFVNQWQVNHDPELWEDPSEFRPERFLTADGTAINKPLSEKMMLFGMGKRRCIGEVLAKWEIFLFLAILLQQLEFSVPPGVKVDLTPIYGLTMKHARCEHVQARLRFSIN

[4] = tested on: HEK293; experiment: cells; format: functional, cell-based; settings: Homo sapiens
[5] = molecular target: T3, Nuclear receptor subfamily 0 group B member 1 (Homo sapiens, UniProt P51843); experiment: Luminescence-based cell-based high throughput dose response assay for inhibitors of the orphan nuclear receptor subfamily 0, group B, member 1 (DAX1; NR0B1). [Related pubchem assays (depositor defined):AID504766, AID504790]; format: functional
T3 sequence (P51843 whole entry): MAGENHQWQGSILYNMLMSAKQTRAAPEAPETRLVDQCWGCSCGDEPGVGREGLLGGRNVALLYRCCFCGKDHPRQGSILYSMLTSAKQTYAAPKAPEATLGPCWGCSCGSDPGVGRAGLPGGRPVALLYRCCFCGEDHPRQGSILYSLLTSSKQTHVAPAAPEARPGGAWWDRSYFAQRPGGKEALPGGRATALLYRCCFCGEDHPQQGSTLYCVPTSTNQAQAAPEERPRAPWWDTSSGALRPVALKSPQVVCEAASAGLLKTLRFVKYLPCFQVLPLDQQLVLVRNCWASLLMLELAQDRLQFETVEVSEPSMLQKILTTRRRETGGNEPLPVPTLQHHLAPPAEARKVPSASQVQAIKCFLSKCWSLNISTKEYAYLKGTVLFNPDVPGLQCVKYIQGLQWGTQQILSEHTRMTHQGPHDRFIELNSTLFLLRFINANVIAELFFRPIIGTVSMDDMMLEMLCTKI

[6] = molecular target: Oxysterols receptor LXR-beta (Homo sapiens, UniProt P55055); format: functional, cell-based;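 also: Cell-based luminescence dose-response assay of agonist activity at LXR, run as a confirmatory counterscreen to a daf-12 agonist screen; HEK293 cells with Gal4-LXR fusion and GAL4-driven luciferase reporter; agonist potency from rising luciferase signal of a Gal4-LXR reporter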
[7] = cells
[8] = molecular target: Apoptotic protease-activating factor 1 (Homo sapiens, UniProt O14727); format: functional
Sequence of Apoptotic protease-activating factor 1 (O14727 whole entry): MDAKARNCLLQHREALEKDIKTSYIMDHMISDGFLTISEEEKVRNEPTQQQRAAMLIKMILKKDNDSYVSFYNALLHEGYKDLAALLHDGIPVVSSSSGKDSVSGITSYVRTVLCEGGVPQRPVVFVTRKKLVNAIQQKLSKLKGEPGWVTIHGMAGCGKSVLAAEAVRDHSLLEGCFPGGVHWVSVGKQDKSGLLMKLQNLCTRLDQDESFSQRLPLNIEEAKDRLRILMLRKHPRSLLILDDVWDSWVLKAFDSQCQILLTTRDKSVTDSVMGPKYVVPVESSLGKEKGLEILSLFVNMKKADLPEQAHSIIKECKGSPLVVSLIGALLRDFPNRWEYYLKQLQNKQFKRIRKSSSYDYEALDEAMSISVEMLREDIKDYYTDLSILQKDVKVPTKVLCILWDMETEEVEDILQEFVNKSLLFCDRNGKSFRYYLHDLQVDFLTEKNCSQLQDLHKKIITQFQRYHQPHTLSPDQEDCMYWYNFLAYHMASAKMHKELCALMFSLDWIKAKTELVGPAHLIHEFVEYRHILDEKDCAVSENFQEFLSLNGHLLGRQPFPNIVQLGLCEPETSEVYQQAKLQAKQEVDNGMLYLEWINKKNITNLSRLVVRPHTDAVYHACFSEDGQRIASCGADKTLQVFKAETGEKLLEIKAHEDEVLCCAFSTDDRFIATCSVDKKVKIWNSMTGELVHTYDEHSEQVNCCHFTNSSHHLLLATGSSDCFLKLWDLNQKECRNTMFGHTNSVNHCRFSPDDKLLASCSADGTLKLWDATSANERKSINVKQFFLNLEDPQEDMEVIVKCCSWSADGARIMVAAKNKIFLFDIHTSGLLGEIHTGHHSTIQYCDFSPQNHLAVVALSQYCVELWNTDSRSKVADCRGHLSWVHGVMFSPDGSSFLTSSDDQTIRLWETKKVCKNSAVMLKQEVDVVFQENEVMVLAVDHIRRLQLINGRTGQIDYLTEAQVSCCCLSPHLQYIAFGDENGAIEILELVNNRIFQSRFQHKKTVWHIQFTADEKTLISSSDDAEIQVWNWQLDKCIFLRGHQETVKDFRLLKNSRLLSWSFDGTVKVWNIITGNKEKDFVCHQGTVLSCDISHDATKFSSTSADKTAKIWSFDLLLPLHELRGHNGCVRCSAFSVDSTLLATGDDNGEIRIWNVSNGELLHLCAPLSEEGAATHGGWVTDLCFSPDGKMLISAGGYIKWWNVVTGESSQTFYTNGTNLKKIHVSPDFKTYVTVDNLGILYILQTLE

[9] = molecular target: CAAX prenyl protease 2 (Saccharomyces cerevisiae S288c, UniProt Q03530); format: biochemical
Sequence of CAAX prenyl protease 2 (Saccharomyces cerevisiae S288c, UniProt Q03530) (Q03530 whole entry): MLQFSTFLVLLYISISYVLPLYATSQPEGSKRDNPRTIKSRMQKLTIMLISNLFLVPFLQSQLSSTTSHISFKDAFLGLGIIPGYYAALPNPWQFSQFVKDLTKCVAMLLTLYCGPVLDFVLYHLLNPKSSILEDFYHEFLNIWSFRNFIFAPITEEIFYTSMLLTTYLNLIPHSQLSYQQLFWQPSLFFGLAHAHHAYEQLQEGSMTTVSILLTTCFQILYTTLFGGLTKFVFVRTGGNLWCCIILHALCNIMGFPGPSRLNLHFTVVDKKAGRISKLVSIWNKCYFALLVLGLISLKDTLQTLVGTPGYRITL

[10] = molecular target: CAAX prenyl protease 2 (Homo sapiens, UniProt Q9Y256); experiment: inhibition of Ras-converting CAAX protease Rce1 – biochemical, yeast membranes, quenched-peptide fluorescence, cherry-pick, dose response (AID 588849)
Sequence of CAAX prenyl protease 2 (Homo sapiens, UniProt Q9Y256) (Q9Y256 whole entry): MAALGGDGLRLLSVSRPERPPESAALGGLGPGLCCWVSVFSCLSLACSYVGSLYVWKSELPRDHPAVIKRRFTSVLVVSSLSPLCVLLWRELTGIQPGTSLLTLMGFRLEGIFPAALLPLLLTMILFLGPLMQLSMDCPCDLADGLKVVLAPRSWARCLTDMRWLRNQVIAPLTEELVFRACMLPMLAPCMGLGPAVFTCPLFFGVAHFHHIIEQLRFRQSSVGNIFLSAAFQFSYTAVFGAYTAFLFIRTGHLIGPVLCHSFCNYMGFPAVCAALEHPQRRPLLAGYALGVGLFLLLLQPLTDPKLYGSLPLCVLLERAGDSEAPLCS

[11] = molecular target: Voltage-gated inwardly rectifying potassium channel KCNH2 (Homo sapiens, UniProt Q12809); settings: Potency;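 also: confirmatory quantitative high-throughput screen measuring inhibition of hERG channel activity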
Sequence of Voltage-gated inwardly rectifying potassium channel KCNH2 (Q12809 whole entry, the tested form may be a part): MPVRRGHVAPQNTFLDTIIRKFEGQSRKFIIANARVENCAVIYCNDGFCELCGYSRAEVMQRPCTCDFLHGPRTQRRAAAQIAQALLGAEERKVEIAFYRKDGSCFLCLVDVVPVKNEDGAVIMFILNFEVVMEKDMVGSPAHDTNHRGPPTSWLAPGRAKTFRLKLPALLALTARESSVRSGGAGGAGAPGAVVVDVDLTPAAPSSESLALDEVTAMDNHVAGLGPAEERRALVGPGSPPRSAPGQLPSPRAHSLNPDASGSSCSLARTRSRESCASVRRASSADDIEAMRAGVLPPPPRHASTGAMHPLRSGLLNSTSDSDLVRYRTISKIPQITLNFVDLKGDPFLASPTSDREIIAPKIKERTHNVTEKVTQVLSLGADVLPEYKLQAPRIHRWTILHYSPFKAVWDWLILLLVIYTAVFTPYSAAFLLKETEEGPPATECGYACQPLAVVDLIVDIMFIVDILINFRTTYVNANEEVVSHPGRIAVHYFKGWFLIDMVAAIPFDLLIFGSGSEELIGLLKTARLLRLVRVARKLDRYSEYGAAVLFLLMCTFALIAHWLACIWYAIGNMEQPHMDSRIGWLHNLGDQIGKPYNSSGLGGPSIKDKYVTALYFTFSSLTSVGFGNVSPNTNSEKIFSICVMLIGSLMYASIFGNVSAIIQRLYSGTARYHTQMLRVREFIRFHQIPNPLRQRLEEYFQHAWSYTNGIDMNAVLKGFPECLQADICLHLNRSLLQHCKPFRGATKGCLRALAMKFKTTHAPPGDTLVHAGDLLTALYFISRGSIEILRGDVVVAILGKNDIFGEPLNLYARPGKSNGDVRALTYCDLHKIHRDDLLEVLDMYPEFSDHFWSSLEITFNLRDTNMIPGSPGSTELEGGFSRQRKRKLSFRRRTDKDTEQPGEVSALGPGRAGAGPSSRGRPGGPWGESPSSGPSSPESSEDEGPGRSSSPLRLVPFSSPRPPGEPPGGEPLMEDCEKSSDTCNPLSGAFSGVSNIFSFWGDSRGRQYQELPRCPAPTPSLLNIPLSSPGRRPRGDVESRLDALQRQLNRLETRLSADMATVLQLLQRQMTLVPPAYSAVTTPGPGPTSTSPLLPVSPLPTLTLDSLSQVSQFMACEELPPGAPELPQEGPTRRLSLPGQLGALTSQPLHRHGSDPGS

[12] = molecular target: T4, RNA-binding protein pos-1 (Caenorhabditis elegans, UniProt G5EF15); experiment: disruptors of C. elegans POS-1 RNA interaction – biochemical, fluorescence polarization, dose response (AID 1964);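 also: purified POS-1 fused to maltose binding protein made in E. coli; potency of compounds blocking POS-1 binding to fluorescent RNA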
T4 sequence (G5EF15 whole entry): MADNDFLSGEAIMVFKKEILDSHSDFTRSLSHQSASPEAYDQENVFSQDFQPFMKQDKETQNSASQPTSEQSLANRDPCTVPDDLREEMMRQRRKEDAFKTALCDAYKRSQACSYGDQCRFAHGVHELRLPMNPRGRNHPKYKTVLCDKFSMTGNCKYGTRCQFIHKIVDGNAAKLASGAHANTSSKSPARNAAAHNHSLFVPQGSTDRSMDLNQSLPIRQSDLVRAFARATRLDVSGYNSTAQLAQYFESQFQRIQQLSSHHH

[13] = molecular target: T5, Zinc finger protein mex-5 (Caenorhabditis elegans, UniProt Q9XUB2); experiment: potency of MEX-5 RNA-binding blockers – biochemical, C. elegans, fluorescence polarization, dose response (AID 1960)
T5 sequence (Q9XUB2 whole entry): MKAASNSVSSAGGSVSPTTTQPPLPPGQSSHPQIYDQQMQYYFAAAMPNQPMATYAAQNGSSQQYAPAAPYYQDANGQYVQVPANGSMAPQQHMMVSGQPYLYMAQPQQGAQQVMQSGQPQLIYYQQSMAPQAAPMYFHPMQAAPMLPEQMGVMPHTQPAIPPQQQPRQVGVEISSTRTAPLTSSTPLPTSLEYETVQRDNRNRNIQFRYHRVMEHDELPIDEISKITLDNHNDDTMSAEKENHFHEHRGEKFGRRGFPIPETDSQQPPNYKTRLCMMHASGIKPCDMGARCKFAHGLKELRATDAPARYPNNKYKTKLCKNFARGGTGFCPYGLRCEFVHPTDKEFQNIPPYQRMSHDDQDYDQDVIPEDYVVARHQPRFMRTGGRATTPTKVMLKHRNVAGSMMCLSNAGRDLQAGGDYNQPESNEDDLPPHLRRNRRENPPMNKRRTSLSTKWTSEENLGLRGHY

[14] = tested on: CHO; experiment: CHO cell viability loss, potency – luminescence, cytotoxicity control for TLR9-MyD88 binding inhibitor project, dose response (AID 588339); format: functional, cell-based, hamster; settings: Cricetulus griseus;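 also: CHO cells stably coexpressing TLR9 and MyD88 fusions from primary screen; compound exposure lasted 48 hours before viability readout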
[15] = molecular target: Beta Lactamase (Pseudomonas aeruginosa, UniProt Q932Y6); experiment: BLA reporter interference, concentration series – BLA reporter cells, FRET fluorescence, artefact control for TLR9-MyD88 binding inhibitor project, dose response (AID 588341); format: cell-based;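 also: cell based assay in CHO-K1 cells stably expressing beta-lactamase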
Sequence of Beta Lactamase (Q932Y6 whole entry): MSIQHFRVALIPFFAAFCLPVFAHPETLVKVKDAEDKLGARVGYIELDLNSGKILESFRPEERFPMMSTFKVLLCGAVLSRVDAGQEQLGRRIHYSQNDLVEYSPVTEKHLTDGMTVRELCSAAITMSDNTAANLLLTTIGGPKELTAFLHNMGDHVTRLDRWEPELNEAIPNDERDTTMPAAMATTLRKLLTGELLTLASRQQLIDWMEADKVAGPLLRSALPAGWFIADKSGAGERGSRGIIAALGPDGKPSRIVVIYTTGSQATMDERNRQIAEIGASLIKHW

[16] = molecular target: T6, Corticotropin-releasing factor receptor 2/Corticotropin-releasing factor-binding protein (Homo sapiens, UniProt P24387+Q13324); experiment: activators of CRF receptor 2 with binding protein – uHTS hits, confirmation (AID 602473); format: functional; settings: read-out: EC50_Mean
T6 sequence (Q13324 whole entry): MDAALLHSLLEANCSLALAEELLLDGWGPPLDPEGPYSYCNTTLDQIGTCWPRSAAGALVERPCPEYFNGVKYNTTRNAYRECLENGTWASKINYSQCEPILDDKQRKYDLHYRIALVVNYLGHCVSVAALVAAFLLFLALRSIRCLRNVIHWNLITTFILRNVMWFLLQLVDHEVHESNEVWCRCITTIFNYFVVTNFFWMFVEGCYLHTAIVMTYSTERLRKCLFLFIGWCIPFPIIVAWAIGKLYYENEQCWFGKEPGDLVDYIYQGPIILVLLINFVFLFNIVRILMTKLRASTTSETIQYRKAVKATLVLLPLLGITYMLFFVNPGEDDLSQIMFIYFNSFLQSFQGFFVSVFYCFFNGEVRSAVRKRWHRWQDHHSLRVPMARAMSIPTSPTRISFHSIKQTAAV
T6 sequence (P24387 whole entry): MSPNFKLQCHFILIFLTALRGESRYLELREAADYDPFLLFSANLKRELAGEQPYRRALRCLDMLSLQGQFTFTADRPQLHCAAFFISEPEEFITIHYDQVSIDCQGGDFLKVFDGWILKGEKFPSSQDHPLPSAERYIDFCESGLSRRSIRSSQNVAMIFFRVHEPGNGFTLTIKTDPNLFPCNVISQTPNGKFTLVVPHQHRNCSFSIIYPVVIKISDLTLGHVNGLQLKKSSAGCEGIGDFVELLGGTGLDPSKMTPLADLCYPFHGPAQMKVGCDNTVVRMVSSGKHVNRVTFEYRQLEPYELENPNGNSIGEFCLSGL

[17] = NIH-3T3 fibroblast cytotoxicity, dose response, cytotoxicity control, cell-based, fluorescence, Alamar Blue, secondary assay (AID 2327); format: functional;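 also: NIH-3T3 mouse fibroblasts cultured with fluconazole at 8 µg/mL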
[18] = tested on: Streptococcus sp. 'group A'; experiment: Streptococcus pyogenes SK(-)GAS viability under kanamycin – luminescence, BacTiterGlo, confirmation, counter-screen for streptokinase expression inhibitor project, dose response (AID 1900); format: functional, organism-based
[19] = molecular target: T7, Streptokinase A (Streptococcus pyogenes serotype M1, UniProt P10520); experiment: viability-normalized secreted streptokinase activity reduction – plasminogen activation absorbance, OD405, dose response (AID 1914); format: functional, Streptococcus pyogenes M1 GAS;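 also: secreted streptokinase activity via plasminogen activation per viability signal from cell pellet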
T7 sequence (P10520 whole entry): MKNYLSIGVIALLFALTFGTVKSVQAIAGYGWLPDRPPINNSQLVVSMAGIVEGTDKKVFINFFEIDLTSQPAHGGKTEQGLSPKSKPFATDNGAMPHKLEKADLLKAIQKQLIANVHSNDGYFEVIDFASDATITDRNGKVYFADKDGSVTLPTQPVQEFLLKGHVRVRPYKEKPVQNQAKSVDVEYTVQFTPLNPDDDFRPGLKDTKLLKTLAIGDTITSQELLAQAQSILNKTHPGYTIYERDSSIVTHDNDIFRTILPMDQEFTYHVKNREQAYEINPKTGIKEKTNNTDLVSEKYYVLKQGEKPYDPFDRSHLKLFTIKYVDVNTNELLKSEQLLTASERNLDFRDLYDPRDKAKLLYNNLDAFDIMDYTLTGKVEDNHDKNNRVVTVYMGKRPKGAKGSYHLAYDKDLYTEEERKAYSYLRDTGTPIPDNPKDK

[20] = fluconazole-exposed Candida albicans growth modulators – fluorescence, retest, confirmation (AID 2467); format: functional, cell-based
[21] = Trypanosoma cruzi growth suppression in host cells – NIH3T3 host cells, beta-gal luminescence, confirmation (AID 2044); format: functional, cell-based;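 also: intracellular parasites grown in NIH/3T3 mouse fibroblasts as host cells; luminescent beta-galactosidase reporter signal from transgenic T. cruzi replicating inside host cells; inhibitors lower the luminescence signal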
[22] = molecular target: Serine/threonine-protein phosphatase (Candida dubliniensis (strain CD36 / CBS 7987 / NCPF 3949 / NRRLY-17841) (Yeast), UniProt B9W6M3); experiment: blockers of CaCl2-induced CDRE-lacZ signaling – S. cerevisiae, luminescence, secondary, dose response (AID 2388); format: functional, cell-based;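 also: yeast reporter cells carrying a calcineurin-responsive lacZ construct stimulated with calcium chloride; luminescent beta-galactosidase reporter signal in whole cells rather than isolated phosphatase activity; potency for inhibition where a drop in reporter signal means calcineurin blockade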
[23] = NIH3T3 cell viability loss – ATP luminescence, mouse fibroblasts, counter-screen, dose response (AID 2010); format: functional, cell-based;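 also: cells exposed to compound for about 90 hours before reading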
[24] = tested on: Streptococcus; experiment: GAS UMAA2166 growth inhibition – luminescence, BacTiterGlo, counter-screen for streptokinase expression inhibitor project, dose response (AID 1915); format: functional, organism-based;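 also: potency for reduction of bacterial viability or growth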
[25] = tested on: INS1; experiment: INS-1E survival protection against cytokine death – cell-based, luminescence, retest, dose response (AID 449756); format: functional; settings: Rattus norvegicus;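 also: cell death triggered by IL-1 beta plus TNF-alpha plus IFN-gamma mixture; protective hits raise ATP signal compared with cytokine alone wells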
[26] = molecular target: ATP-dependent molecular chaperone HSP82 (Candida albicans (strain WO-1) (Yeast), UniProt C4YTQ8); experiment: steroid-induced GRE reporter decrease in yeast – S. cerevisiae, luminescence, Hsp90 inhibitor project, dose response (AID 2400); format: functional, cell-based;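 also: beta-galactosidase luminescence from glucocorticoid response element reporter as proxy for Hsp90 function; inhibitor potency where signal loss means Hsp90 inhibition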
Sequence of ATP-dependent molecular chaperone HSP82 (C4YTQ8 whole entry): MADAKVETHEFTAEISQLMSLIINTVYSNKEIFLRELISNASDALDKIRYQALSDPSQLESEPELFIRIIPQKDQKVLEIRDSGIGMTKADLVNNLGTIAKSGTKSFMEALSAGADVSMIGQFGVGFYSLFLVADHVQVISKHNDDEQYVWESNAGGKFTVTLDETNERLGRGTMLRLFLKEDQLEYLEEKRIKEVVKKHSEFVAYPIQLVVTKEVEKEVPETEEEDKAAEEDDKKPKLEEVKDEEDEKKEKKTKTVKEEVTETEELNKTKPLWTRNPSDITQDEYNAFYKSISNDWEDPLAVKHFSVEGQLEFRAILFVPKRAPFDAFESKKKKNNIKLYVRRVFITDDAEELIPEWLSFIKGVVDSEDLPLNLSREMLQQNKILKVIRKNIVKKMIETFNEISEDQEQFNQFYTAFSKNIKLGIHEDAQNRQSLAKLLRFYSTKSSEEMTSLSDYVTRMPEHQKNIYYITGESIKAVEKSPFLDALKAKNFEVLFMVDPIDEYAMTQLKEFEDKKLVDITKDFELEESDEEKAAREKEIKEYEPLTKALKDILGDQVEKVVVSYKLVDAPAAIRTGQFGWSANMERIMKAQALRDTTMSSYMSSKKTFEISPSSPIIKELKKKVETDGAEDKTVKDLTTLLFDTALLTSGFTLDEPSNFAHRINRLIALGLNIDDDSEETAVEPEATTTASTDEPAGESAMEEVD

Sequence of Beta-galactosidase (Q8VNN2 whole entry): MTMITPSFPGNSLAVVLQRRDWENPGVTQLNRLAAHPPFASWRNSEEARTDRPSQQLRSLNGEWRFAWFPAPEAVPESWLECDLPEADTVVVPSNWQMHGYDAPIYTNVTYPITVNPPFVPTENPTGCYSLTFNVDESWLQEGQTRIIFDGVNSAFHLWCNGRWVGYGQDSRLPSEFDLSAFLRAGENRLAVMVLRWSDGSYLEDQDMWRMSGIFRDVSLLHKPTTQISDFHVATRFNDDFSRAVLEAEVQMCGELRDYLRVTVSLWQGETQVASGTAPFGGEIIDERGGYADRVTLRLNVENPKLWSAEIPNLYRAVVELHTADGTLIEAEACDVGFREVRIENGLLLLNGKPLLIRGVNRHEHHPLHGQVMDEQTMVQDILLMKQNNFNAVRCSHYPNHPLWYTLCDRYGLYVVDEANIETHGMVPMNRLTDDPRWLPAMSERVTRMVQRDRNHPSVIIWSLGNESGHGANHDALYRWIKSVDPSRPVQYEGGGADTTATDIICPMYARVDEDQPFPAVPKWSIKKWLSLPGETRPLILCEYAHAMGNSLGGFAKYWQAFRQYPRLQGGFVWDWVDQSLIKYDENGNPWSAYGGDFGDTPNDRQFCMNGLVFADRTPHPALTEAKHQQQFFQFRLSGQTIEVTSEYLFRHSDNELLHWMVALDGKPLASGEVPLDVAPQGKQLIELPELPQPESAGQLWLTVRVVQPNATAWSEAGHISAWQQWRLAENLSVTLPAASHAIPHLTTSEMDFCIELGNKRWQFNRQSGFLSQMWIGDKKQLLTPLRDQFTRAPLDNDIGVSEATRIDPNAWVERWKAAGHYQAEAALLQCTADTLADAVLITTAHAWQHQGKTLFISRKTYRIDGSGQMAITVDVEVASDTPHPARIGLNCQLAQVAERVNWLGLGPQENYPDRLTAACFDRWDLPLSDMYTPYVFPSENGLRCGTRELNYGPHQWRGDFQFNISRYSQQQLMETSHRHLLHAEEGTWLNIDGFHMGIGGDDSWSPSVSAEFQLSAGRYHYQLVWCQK

Compound: Cc1ccc(C(=O)COC(=O)CNC(=O)Cc2ccccc2)cc1[N+](=O)[O-]
- EC50 [1]: > 40 µM (inactive)
- IC50 [2]: > 40 µM (not active)
- AC50 [3]: 25.1 µM (inconclusive)

Compound: Oc1ccccc1-c1cc(-c2ccc(F)cc2)[nH]n1
- IC50 [4]: > 67.5 µM (inactive)
- IC50 [5]: > 67.5 µM (inactive)
- EC50 [6]: > 67.6 µM (inactive)
- EC50 [7]: > 67.6 µM (inactive)

Compound: O=C(O)c1cccc(NC2=C(N3CCOCC3)C(=O)c3ccccc3C2=O)c1
- IC50 [8]: 14.8 µM (active)

Compound: COC(=O)c1ccc(NCC(=O)c2ccccc2)cc1
- EC50 [1]: > 40 µM (inactive)
- IC50 [2]: 13.7 µM (active)

Compound: Cc1nc(-c2ccc(Cl)cc2)sc1C1(C)CC(c2ccccc2Br)=NO1 (stereo unspecified)
- AC50 [9]: > 100 µM (inactive)
- AC50 [10]: > 100 µM (inactive)

Compound: Nc1nc(SCc2ccc([N+](=O)[O-])cc2)c2ncn([C@@H]3O[C@H](CO)[C@H](O)[C@H]3O)c2n1
- AC50 [11]: 20 µM (inconclusive)

Compound: Cc1nc2c(ncn2-c2ccccc2)c(=O)n1NC(=O)CN1CCCC1
- IC50 [4]: > 67.5 µM (inactive)
- IC50 [5]: > 67.5 µM (inactive)

Compound: CC(C)(C=O)Cc1cc(C(C)(C)C)c(O)c(C(C)(C)C)c1
- AC50 [11]: 35.5 µM (inconclusive)

Compound: COc1ccc(C(=O)c2sc3nc(C)cc(-c4cccs4)c3c2N)cc1OC
- EC50 [12]: 21.2 µM (active)
- EC50 [13]: 22.6 µM (active)
- IC50 [14]: 50.2 µM (inactive)
- IC50 [15]: 8.85 µM (active)
- EC50 [16]: 8.12 µM (active)

Compound: Nc1nonc1-n1nnc(C(=O)N/N=C/c2cc(Br)ccc2O)c1CNc1ccccc1
- EC50 [17]: 43.8 µM (inconclusive)
- EC50 [18]: 392 nM (active)
- EC50 [19]: > 150 µM (not active)
- EC50 [20]: 178 nM (active)
- EC50 [21]: 1.84 µM (active)
- EC50 [22]: > 180 µM (inactive)
- EC50 [23]: 5.03 µM (active)
- EC50 [24]: 3.23 µM (active)
- AC50 [25]: 2.52 µM (active)
- EC50 [26]: 22.6 µM (active)
